Some test systems named below: A498 renal; MOLT-4 leukemia; K-562 leukemia; HCT-15 colon; NCI-H522 lung; COLO 205 colon; UO-31 renal; SK-MEL-28 melanoma; CCRF-CEM leukemia; SNB-19 CNS.
What all share (assay): DTP human tumour cell line panel, 48 h

SMILES strings stand for the structures. Where “and” joins values, the source holds several entries; their conditions need not be identical. Equal values may be shown once.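 Following 48 hours of exposure in 96-well plates, responses at five concentrations were used to interpolate endpoints linearly. At the GI50, growth is halved. The concentration for full growth arrest is given as TGI.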

For `C=C1C(=O)C23C(O)CC4C(C)(C)CCC(O)C4(C)C2CC(OC(C)=O)C1[C@H]3O` (some centres undefined), the TGI – broadly, the concentration giving total growth inhibition – in the test on A498 renal came out at 30.9 µM; in the test on MOLT-4 leukemia, 8.08 µM; in the test on K-562 leukemia, 10.1 µM; with HCT-15 colon it was 6 µM; with NCI-H522 lung it was 0.638 µM; in the test on COLO 205 colon it was 5.3 µM. Further, the TGI in the test with UO-31 renal amounted to 29.7 µM; in the test with SK-MEL-28 melanoma, 8.19 µM; in the test with CCRF-CEM leukemia it was 2.7 µM; in the test on SNB-19 CNS it was 30.9 µM.

As to `COc1cccc(NC(=O)/C(CS(=O)(=O)CCC(C(C)=O)C(C)=O)=N\NC(C)(C)C)c1`, the TGI in the test on A498 renal, in the test with MOLT-4 leukemia, in the test with K-562 leukemia, with HCT-15 colon, with NCI-H522 lung and in the test on COLO 205 colon was more than 100 µM in each case. Besides, the TGI in the test on UO-31 renal, in the test with SK-MEL-28 melanoma, in the test on CCRF-CEM leukemia and in the test with SNB-19 CNS was more than 100 µM throughout.

For the compound `O=C(O)CN(CCN(CC(=O)O)CC(=O)O)CC(=O)O.[Cu+2].[Na+]`, the GI50 in the test on A498 renal, in the test with MOLT-4 leukemia, with K-562 leukemia, with HCT-15 colon, in the test with NCI-H522 lung and in the test on COLO 205 colon was more than 100 µM each time. Besides, the GI50 in the test with UO-31 renal, in the test on SK-MEL-28 melanoma, in the test on CCRF-CEM leukemia and with SNB-19 CNS was more than 100 µM each time. In addition, the TGI with A498 renal, in the test on MOLT-4 leukemia, with K-562 leukemia, with HCT-15 colon, in the test with NCI-H522 lung and with COLO 205 colon was more than 100 µM in each case. In addition, the TGI in the test on UO-31 renal, with SK-MEL-28 melanoma, with CCRF-CEM leukemia and in the test with SNB-19 CNS was more than 100 µM throughout.

On to `C=C1C(C)C2C(Cc3ccccc3)NC(=O)C23C(OC(C)=O)C=CC(C)(O)C(=O)C(C)C/C=C/C3C1O` (centres undefined), for which the GI50 (usually the concentration that inhibits growth by half) with A498 renal is 0.202 µM and 0.05 µM; in the test on MOLT-4 leukemia, 17.9 µM; with K-562 leukemia, 13.6 µM; in the test with HCT-15 colon, more than 500 µM; with COLO 205 colon it was 0.0825 µM; with SK-MEL-28 melanoma it was 22.2 µM. The figures for the GI50 in the test on CCRF-CEM leukemia and with SNB-19 CNS were 15.4 µM and 0.474 µM, respectively. Besides, the TGI was 1.47 µM and 13.9 µM in the test on A498 renal; 78.3 µM and > 500 µM with MOLT-4 leukemia; more than 500 µM in the test on K-562 leukemia; more than 500 µM in the test with HCT-15 colon; 27.3 µM and 36.4 µM in the test with NCI-H522 lung; more than 500 µM in the test with COLO 205 colon. For the same compound, the TGI is 1.62 µM and 14.3 µM in the test with UO-31 renal; 57.7 µM and 153 µM in the test with SK-MEL-28 melanoma; 78.8 µM and > 500 µM in the test with CCRF-CEM leukemia.

On to `COc1cc(C2c3cc4c(cc3[C@@H](Nc3ccc(F)cc3)C3COC(=O)[C@H]23)OCO4)cc(OC)c1O` (some centres undefined), for which the GI50 is 0.878 µM with A498 renal; 0.0657 µM in the test with MOLT-4 leukemia; 0.823 µM in the test with NCI-H522 lung; 0.753 µM in the test with UO-31 renal; 0.201 µM and 0.347 µM in the test on CCRF-CEM leukemia; 0.569 µM in the test on SNB-19 CNS. Also, the TGI was 7.84 µM with A498 renal; 0.821 µM and 2.26 µM in the test on MOLT-4 leukemia; 43 µM with K-562 leukemia; 26.1 µM in the test on HCT-15 colon; 9.12 µM in the test on NCI-H522 lung; 15.6 µM in the test with COLO 205 colon. The TGI in the test with UO-31 renal was 8.72 µM; in the test on SK-MEL-28 melanoma it was 48.3 µM; with CCRF-CEM leukemia, 19.6 µM; in the test with SNB-19 CNS it was 33.9 µM.

With `Cc1nc2ccccc2c(=O)n1/N=C(\N=Nc1cc(Cl)ccc1Cl)c1ccc(N(C)C)cc1`, the TGI was more than 100 µM in the test with A498 renal; more than 100 µM with MOLT-4 leukemia; more than 100 µM with K-562 leukemia; more than 100 µM in the test with HCT-15 colon; 92.3 µM with NCI-H522 lung; more than 100 µM in the test with COLO 205 colon. In addition, the TGI with UO-31 renal, with SK-MEL-28 melanoma, in the test on CCRF-CEM leukemia and in the test on SNB-19 CNS was more than 100 µM throughout.

Take `CCOC(=O)c1c(CN2CCCCC2)nc2ccc(Cl)cc2c1-c1ccccc1`: the GI50 with A498 renal was 18.3 µM; in the test on MOLT-4 leukemia, 6.5 µM; in the test on K-562 leukemia it was 25.6 µM; with HCT-15 colon, 21.4 µM; in the test with NCI-H522 lung, 19.2 µM; in the test on COLO 205 colon it was 22.9 µM. The GI50 with UO-31 renal is 20.6 µM; in the test on SK-MEL-28 melanoma, 30.4 µM; with CCRF-CEM leukemia, 7.6 µM; with SNB-19 CNS, 21.8 µM. In addition, the concentration for total growth inhibition (TGI) amounted to 37.7 µM in the test with A498 renal; 27.9 µM in the test with MOLT-4 leukemia; 92.7 µM with K-562 leukemia; 47.9 µM with HCT-15 colon; 53 µM with NCI-H522 lung; 58.3 µM in the test on COLO 205 colon. Besides, the TGI is 53.9 µM in the test on UO-31 renal, 88.3 µM in the test with SK-MEL-28 melanoma, 36.6 µM in the test on CCRF-CEM leukemia and 48.4 µM in the test on SNB-19 CNS.

Take `COc1cc(OC)c(/C=C/S(=O)(=O)Cc2ccc(OC)c(N)n2)c(OC)c1`: the concentration for 50% growth inhibition (GI50) in the test with A498 renal is less than 0.01 µM; with MOLT-4 leukemia it was less than 0.0214 µM; in the test on K-562 leukemia, less than 0.01 µM; in the test with HCT-15 colon it was less than 0.01 µM; with NCI-H522 lung, less than 0.01 µM; in the test with COLO 205 colon, less than 0.01 µM. Moreover, the GI50 in the test with UO-31 renal is less than 0.0126 µM; with CCRF-CEM leukemia, less than 0.0157 µM. The total growth inhibition concentration (TGI) is more than 100 µM in the test on MOLT-4 leukemia; more than 100 µM with K-562 leukemia; more than 100 µM with HCT-15 colon; less than 0.01 µM in the test on COLO 205 colon; more than 100 µM in the test with UO-31 renal; more than 100 µM with SK-MEL-28 melanoma. In addition, the TGI with CCRF-CEM leukemia and with SNB-19 CNS was more than 100 µM in each case.

For the compound `COc1cccc(/C=C\C(=O)c2ccccc2)c1`, the GI50 in the test on A498 renal is 11.4 µM; with MOLT-4 leukemia, 6.1 µM; with K-562 leukemia, 6.27 µM; in the test on HCT-15 colon, 2.4 µM; in the test on NCI-H522 lung, 2.06 µM; in the test with COLO 205 colon, 7.82 µM. Further, the GI50 with UO-31 renal was 2.18 µM; with SK-MEL-28 melanoma, 4.31 µM; with CCRF-CEM leukemia it was 6.79 µM; with SNB-19 CNS, 7.68 µM. Moreover, the total growth inhibition concentration (TGI) with A498 renal was 26.2 µM; in the test with MOLT-4 leukemia it was more than 100 µM; in the test with K-562 leukemia, more than 100 µM; in the test with HCT-15 colon, 10.1 µM; with NCI-H522 lung it was 4.62 µM; in the test with COLO 205 colon, 40.8 µM. Moreover, the TGI in the test on UO-31 renal was 5.96 µM; in the test on SK-MEL-28 melanoma, 15 µM; in the test on CCRF-CEM leukemia it was more than 100 µM; in the test on SNB-19 CNS, 24.4 µM.

`CCOC(=O)C(Oc1ccc(OC)c2c1C(=O)CCC2)c1ccccc1` (centres undefined): the TGI in the test on A498 renal, in the test on MOLT-4 leukemia, with K-562 leukemia, with HCT-15 colon, in the test with NCI-H522 lung and in the test on COLO 205 colon was more than 100 µM each time. Moreover, the TGI in the test with UO-31 renal, in the test with SK-MEL-28 melanoma, in the test with CCRF-CEM leukemia and in the test on SNB-19 CNS was more than 100 µM in each case.

Turning to `Cc1ccccc1NC(=O)C(=O)C(C(=O)c1ccccc1F)C1OC(=O)c2ccccc21` (centres undefined), the TGI in the test with A498 renal was more than 100 µM; with MOLT-4 leukemia it was 52.4 µM; with K-562 leukemia it was more than 100 µM; in the test with HCT-15 colon, 79.5 µM; with NCI-H522 lung it was 19.1 µM; with COLO 205 colon it was 45.1 µM. Also, the TGI in the test with UO-31 renal came out at 49.4 µM; with SK-MEL-28 melanoma it was 35.8 µM; with CCRF-CEM leukemia, 62.4 µM; in the test with SNB-19 CNS it was 94.8 µM.

In the case of `CCOC(=O)Nc1cc2c(c(N)n1)N=C(c1ccc(Cl)cc1Cl)CN2`, the TGI is 20.6 µM in the test with A498 renal; more than 100 µM in the test with MOLT-4 leukemia; 11.9 µM in the test with K-562 leukemia; 9.02 µM with HCT-15 colon; 1.08 µM in the test with NCI-H522 lung; 4.85 µM in the test with COLO 205 colon. Besides, the TGI is 22.7 µM in the test on UO-31 renal, 29.5 µM in the test on SK-MEL-28 melanoma, more than 100 µM with CCRF-CEM leukemia and 23.2 µM in the test on SNB-19 CNS.

Consider `COc1cc2c(cc1O)CCN[C@@]21CS[C@H]2c3c(OC(C)=O)c(C)c4c(c3C(COC1=O)N1C2C2NC(Cc3cc(C)c(OC)c(O)c32)[C@@H]1O)OCO4` (some centres undefined), for which the TGI is < 10 nM and 6.8e-07 µg/mL and 0.0045 µg/mL in the test on A498 renal; 11.3 µM and 0.0045 µg/mL in the test on K-562 leukemia; < 10 nM and 0.0045 µg/mL in the test on NCI-H522 lung; < 10 nM and 1.9e-07 µg/mL and 0.0045 µg/mL in the test with COLO 205 colon; 21.3 nM and 0.255 µg/mL with UO-31 renal; < 10 nM and 3.1e-07 µg/mL and 0.0045 µg/mL with SK-MEL-28 melanoma. Further, the TGI was > 100 µM and 0.000154 µg/mL and 0.0045 µg/mL with CCRF-CEM leukemia; 11.4 µM in the test with SNB-19 CNS. Further, the GI50 is 4.5 ng/mL in the test on MOLT-4 leukemia; 4.5 ng/mL in the test on K-562 leukemia; 0.00461 ng/mL and 4.5 ng/mL in the test with HCT-15 colon; 4.5 ng/mL in the test on NCI-H522 lung; 4.5 ng/mL with COLO 205 colon; 10.8 ng/mL in the test on UO-31 renal. The GI50 with CCRF-CEM leukemia was 4.5 ng/mL.

With `COc1cc([C@H]2OC[C@@H]3C(c4cc(OC)c5c(c4)OCO5)OC[C@H]23)cc(OC)c1OC` (some centres undefined), the TGI in the test on A498 renal, with MOLT-4 leukemia, in the test on K-562 leukemia, in the test with HCT-15 colon, with NCI-H522 lung and with COLO 205 colon was more than 100 µM throughout. Further, the TGI with UO-31 renal, in the test with SK-MEL-28 melanoma, in the test on CCRF-CEM leukemia and in the test on SNB-19 CNS was more than 100 µM each time.

(Values after PubChem BioAssay (NCI).)
